Results on three compounds are retold here after article PMC11791039, “A split intein and split luciferase-coupled system for detecting protein-protein interactions” (Molecular Systems Biology, 2024).

Holding throughout (type): cell-based
One assay has as its target T1, EGFR(WT)/SHC1 (Homo sapiens, UniProt P00533).
T1 construct: β10-IN (tNLuc β10 peptide + GP41-1 split intein N fragment) (C); V5; expressed in transfected cells
In words: SIMPL2 assay EGFR(WT)/SHC1. The following applies: for SIMPL2 signal, WT (Fig. 3D): replicates 1-4; for normalized SIMPL2 signal EGFR/SHC1 (Fig. 3A source data): 16 h, replicates 1-3.

In the next assay the target is T2, EGFR(L858R)/SHC1 (Homo sapiens, UniProt P00533, L858R).
T2 construct: β10-IN (tNLuc β10 peptide + GP41-1 split intein N fragment) (C); V5; expressed in transfected cells
In words: SIMPL2 assay EGFR(L858R)/SHC1. The settings on record: for SIMPL2 signal, L858R (Fig. 3D): replicates 1-4.

The target of the next assay is T3, MDM2/MDM4 interaction (Homo sapiens, UniProt O15151+Q00987).
T3 construct: β10-IN (tNLuc β10 peptide + GP41-1 split intein N fragment) (C); V5; IC-β9 (GP41-1 split intein C fragment + tNLuc β9 peptide) (N); FLAG; expressed in transfected cells
T3 sequence (Q00987 whole entry, the tested form may be a part): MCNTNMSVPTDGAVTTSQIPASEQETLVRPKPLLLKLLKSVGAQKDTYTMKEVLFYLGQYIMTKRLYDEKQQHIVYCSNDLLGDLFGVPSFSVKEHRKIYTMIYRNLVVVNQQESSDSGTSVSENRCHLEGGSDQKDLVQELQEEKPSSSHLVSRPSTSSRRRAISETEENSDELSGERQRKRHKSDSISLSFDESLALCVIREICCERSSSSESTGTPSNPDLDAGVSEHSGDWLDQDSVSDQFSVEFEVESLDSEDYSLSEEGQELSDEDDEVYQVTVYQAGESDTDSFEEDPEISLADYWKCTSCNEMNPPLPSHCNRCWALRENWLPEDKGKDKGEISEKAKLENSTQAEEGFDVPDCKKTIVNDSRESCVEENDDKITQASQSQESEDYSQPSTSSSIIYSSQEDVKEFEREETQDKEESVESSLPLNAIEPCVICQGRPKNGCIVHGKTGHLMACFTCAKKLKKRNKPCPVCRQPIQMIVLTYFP
T3 sequence (O15151 whole entry, the tested form may be a part): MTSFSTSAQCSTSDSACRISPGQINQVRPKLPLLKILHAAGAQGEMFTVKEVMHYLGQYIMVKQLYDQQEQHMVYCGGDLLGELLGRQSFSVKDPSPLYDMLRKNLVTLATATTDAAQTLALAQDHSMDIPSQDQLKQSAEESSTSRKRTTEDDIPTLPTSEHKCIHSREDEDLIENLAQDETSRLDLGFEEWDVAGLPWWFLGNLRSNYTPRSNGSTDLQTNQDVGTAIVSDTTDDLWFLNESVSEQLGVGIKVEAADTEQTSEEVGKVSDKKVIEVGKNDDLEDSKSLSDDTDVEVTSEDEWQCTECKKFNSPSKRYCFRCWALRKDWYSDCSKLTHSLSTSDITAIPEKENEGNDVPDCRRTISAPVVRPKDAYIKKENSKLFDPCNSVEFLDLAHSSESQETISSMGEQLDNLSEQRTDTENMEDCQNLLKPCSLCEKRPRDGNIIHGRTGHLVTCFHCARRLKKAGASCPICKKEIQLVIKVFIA
In words: SIMPL2 assay MDM2/MDM4. The following applies: for SIMPL2 signal, MDM2/MDM4 (Fig. 4A): replicates 1-4. The method, then:
We next tested the system with molecular glues, which are small molecule compounds that induce target protein interaction. […] To clarify, the two protein molecules are anchored together through a pair of dimerized RO-5963 molecules. […] Therefore, its binding kinetics display a monophasic change.
Figure 4 Evaluation of SIMPL2 as a drug discovery tool using molecular glue and PROTACs. […] Samples were measured and normalized as described in Materials and Methods. […] The cells were then subjected to SIMPL2 luciferase measurement, and the raw values are plotted.
Stable cells of target protein pair were created using Cas9 CRISPR. To characterize PPI modulators, the cells were seeded in 384 well plate (10,000 cells/well) and incubated for 5 h. […] Average signal of wells without either deoxycycline or compound treatment was used as blank or ‘floor’ signal (SF). The average signal of wells with deoxycycline treatment but without compound treatment was used as maximal interaction or ‘ceiling’ (SC). SIMPL2 reading of each sample (Ssample) was normalized according to the formula S^*sample = (Ssample– SF)/(SC– SF) x 100%, in which S^*sample stands for normalized signal. The normalized data of inhibitor experiments were fitted into a four-parameter inhibitor-response model.

The target of the next assay is T4, control (Homo sapiens, UniProt P01116, G12C).
T4 construct: IC-β9 (GP41-1 split intein C fragment + tNLuc β9 peptide) (N); FLAG; expressed in transfected cells
In words: SIMPL2 assay, control of Fig. 3B-D. The following applies: replicates 1-4.

The target in another assay is T5, HRAS/RBD (Homo sapiens, UniProt P01112).
T5 construct: IC-β9 (GP41-1 split intein C fragment + tNLuc β9 peptide) (N); FLAG; expressed in transfected cells
T5 sequence (P01112 whole entry, the tested form may be a part): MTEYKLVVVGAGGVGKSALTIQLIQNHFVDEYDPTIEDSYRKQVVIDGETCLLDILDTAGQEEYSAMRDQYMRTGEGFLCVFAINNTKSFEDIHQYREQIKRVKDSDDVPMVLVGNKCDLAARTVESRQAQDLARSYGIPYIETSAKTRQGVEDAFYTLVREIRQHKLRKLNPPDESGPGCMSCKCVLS
Nature of the assay: SIMPL2 assay HRAS/RBD. The settings on record: 16 h; for normalized SIMPL2 signal HRAS/RBD (Fig. 3A source data): replicates 1-3.

A further assay concerns the target T6, KRAS(G12C)/RBD (Homo sapiens, UniProt P01116, G12C).
T6 construct: IC-β9 (GP41-1 split intein C fragment + tNLuc β9 peptide) (N); FLAG; expressed in transfected cells
Nature of the assay: SIMPL2 assay KRAS(G12C)/RBD. The following applies: for SIMPL2 signal, KRAS(G12C)/RBD (Fig. 4A): replicates 1-4.

Values joined by “and” are separate entries in the source; they are usually repeats but may differ in a detail not shown here. Equal entries are not always repeated.

For the compound `Cn1cnc2c(F)c(Nc3ccc(Br)cc3Cl)c(C(=O)NOCCO)cc21` [selumetinib, Selumetinib], the “SIMPL2 signal, WT (Fig. 3D)” value on EGFR(WT)/SHC1 (AZD6244 6.4e-6 uM) is 117.981 and 128.314 and 91.3721 and 97.094; on EGFR(WT)/SHC1 (AZD6244 3.2e-5 uM) it was 96.8718 and 91.2055 and 86.3725 and 98.1494; on EGFR(WT)/SHC1 (AZD6244 0.00016 uM), 96.2607 and 97.2051 and 90.2055 and 118.204; on EGFR(WT)/SHC1 (AZD6244 0.0008 uM), 91.2055 and 95.2608 and 88.9279 and 100.427; at EGFR(WT)/SHC1 (AZD6244 0.004 uM) it was 91.5388 and 82.4283 and 71.7068 and 83.0949; on EGFR(WT)/SHC1 (AZD6244 0.02 uM), 79.8174 and 81.2062 and 88.8723 and 103.205. The “SIMPL2 signal, WT (Fig. 3D)” value at EGFR(WT)/SHC1 (AZD6244 0.1 uM) was 113.815 and 112.593 and 100.427 and 98.6494; on EGFR(WT)/SHC1 (AZD6244 0.5 uM), 103.76 and 101.094 and 97.3717 and 91.7054. Further, the “inhibition of EGFR(WT)/SHC1 interaction signal” value on EGFR(WT)/SHC1 (doxycycline + compound 16 h) was “no effect”. Further, the “SIMPL2 signal, L858R (Fig. 3D)” value is 107.975 and 92.9525 and 107.024 and 103.355 at EGFR(L858R)/SHC1 (AZD6244 6.4e-6 uM); 88.2795 and 92.9261 and 92.1077 and 96.4375 on EGFR(L858R)/SHC1 (AZD6244 3.2e-5 uM); 108.688 and 85.5073 and 82.6824 and 92.9525 on EGFR(L858R)/SHC1 (AZD6244 0.00016 uM); 91.1572 and 94.7742 and 86.1145 and 84.24 on EGFR(L858R)/SHC1 (AZD6244 0.0008 uM); 85.9825 and 79.039 and 94.0877 and 83.58 at EGFR(L858R)/SHC1 (AZD6244 0.004 uM); 89.8635 and 58.7628 and 116.819 and 92.2661 on EGFR(L858R)/SHC1 (AZD6244 0.02 uM). For the same compound, the “SIMPL2 signal, L858R (Fig. 3D)” value at EGFR(L858R)/SHC1 (AZD6244 0.1 uM) is 96.4375 and 99.3416 and 96.3319 and 106.18; on EGFR(L858R)/SHC1 (AZD6244 0.5 uM) it was 85.5073 and 101.612 and 96.3583 and 99.632. For the same compound, on EGFR(L858R)/SHC1 (doxycycline + compound 16 h), the “effect on EGFR(L858R)/SHC1 interaction signal” value is on record as “no effect”. The “induction of MDM2/MDM4 interaction” value at MDM2/MDM4 interaction (16 h with doxycycline) is on record as “not observed”. For the same compound, the “SIMPL2 signal, MDM2/MDM4 (Fig. 4A)” value was 105.342 and 94.3499 and 91.2095 and 111.623 at MDM2/MDM4 interaction (AZD6244 0.013717 uM); 84.4799 and 83.2835 and 83.9564 and 94.7238 on MDM2/MDM4 interaction (AZD6244 0.041152 uM); 85.1528 and 73.4882 and 95.2472 and 81.3394 at MDM2/MDM4 interaction (AZD6244 0.37037 uM); 73.7125 and 92.2563 and 82.1619 and 85.5267 at MDM2/MDM4 interaction (AZD6244 1.11111 uM); 70.0486 and 88.8915 and 67.3568 and 90.3869 at MDM2/MDM4 interaction (AZD6244 3.33333 uM); 78.4232 and 90.5365 and 82.0123 and 90.6113 on MDM2/MDM4 interaction (AZD6244 10 uM). For the same compound, the “SIMPL2 signal, control (Fig. 3D)” value on control (AZD6244 6.4e-6 uM) is 109.596 and 130.088; at control (AZD6244 3.2e-5 uM), 98.632 and 104.891 and 97.5584 and 100.637; at control (AZD6244 0.00016 uM), 97.4795 and 101.781 and 98.0162 and 96.0508; on control (AZD6244 0.0008 uM), 100.171 and 103.684 and 97.3453 and 101.418; on control (AZD6244 0.004 uM) it was 92.396 and 92.6013 and 98.3715; on control (AZD6244 0.02 uM), 95.5614. The “SIMPL2 signal, control (Fig. 3D)” value was 91.3936 and 91.141 on control (AZD6244 0.1 uM); 89.4044 on control (AZD6244 0.5 uM).

For the compound `C=CC(=O)N1CCN(c2nc(=O)n(-c3c(C)ccnc3C(C)C)c3nc(-c4c(O)cccc4F)c(F)cc23)[C@@H](C)C1` [sotorasib, Sotorasib], the “normalized SIMPL2 signal HRAS/RBD (Fig. 3A source data)” value on HRAS/RBD (AMG510 0.013717 uM) was 95.6644% and 96.1454% and 108.19%; at HRAS/RBD (AMG510 0.041152 uM) it was 82.7154% and 124.68% and 97.6847%; on HRAS/RBD (AMG510 0.37037 uM), 80.291% and 76.1158% and 82.6769%; on HRAS/RBD (AMG510 1.11111 uM), 79.0981% and 97.1459% and 96.2801%; at HRAS/RBD (AMG510 3.33333 uM), 91.6238% and 112.808% and 96.8766%; on HRAS/RBD (AMG510 10 uM), 106.247% and 100.629% and 127.854%. Also, the “inhibition of HRAS/RBD interaction signal” value at HRAS/RBD (control cells) was “no significant inhibition”. Also, the “normalized SIMPL2 signal EGFR/SHC1 (Fig. 3A source data)” value on EGFR(WT)/SHC1 (AMG510 0.013717 uM) was 102.175% and 103.017% and 94.8079%; at EGFR(WT)/SHC1 (AMG510 0.041152 uM) it was 78.9251% and 82.2027% and 70.7463%; at EGFR(WT)/SHC1 (AMG510 0.37037 uM) it was 78.0061% and 80.6558% and 79.5224%; on EGFR(WT)/SHC1 (AMG510 1.11111 uM), 94.2258% and 88.5129% and 91.668%; at EGFR(WT)/SHC1 (AMG510 3.33333 uM) it was 78.7566% and 76.4592% and 70.5625%; at EGFR(WT)/SHC1 (AMG510 10 uM), 53.0256% and 58.9069% and 63.3333%. Further, at EGFR(WT)/SHC1 (peer review file, authors confirm for EGFR/SHC1 only), the “inhibition of EGFR/SHC1 signal at high sotorasib concentrations (reviewer's reading of Fig. 3A)” value was 40-50%.

RO-5963: the “SIMPL2 signal, KRAS(G12C)/RBD (Fig. 4A)” value is 109.968 and 129.491 on KRAS(G12C)/RBD (RO-5963 0.013717 uM); 115.427 and 110.7 and 113.906 and 96.9775 at KRAS(G12C)/RBD (RO-5963 0.041152 uM); 127.273 and 113.795 and 114.951 on KRAS(G12C)/RBD (RO-5963 0.37037 uM); 136.524 and 105.719 and 127.623 and 137.333 on KRAS(G12C)/RBD (RO-5963 1.11111 uM); 110.236 and 106.312 and 130.946 on KRAS(G12C)/RBD (RO-5963 3.33333 uM); 136.758 and 112.554 and 138.094 and 146.423 at KRAS(G12C)/RBD (RO-5963 10 uM). Besides, on KRAS(G12C)/RBD (doxycycline + compound 16 h, tested concentration range), the “effect on KRAS(G12C)/RBD control interaction signal” value is “not affected”. For the same compound, at MDM2/MDM4 interaction (16 h with doxycycline), the “concentration above which MDM2/MDM4 interaction declines (hook effect)” value is reported as “above 3 μM”. Also, the “concentration above which MDM2/MDM4 interaction was observed” value at MDM2/MDM4 interaction (16 h with doxycycline) is “above 0.3 μM”. The “concentration of peak MDM2/MDM4 interaction” value on MDM2/MDM4 interaction (16 h with doxycycline) is 3 µM. Besides, the “SIMPL2 signal, MDM2/MDM4 (Fig. 4A)” value was 98.5373 and 90.6113 and 85.0033 and 102.575 on MDM2/MDM4 interaction (RO-5963 0.013717 uM); 93.004 and 86.0501 and 89.041 and 96.2193 at MDM2/MDM4 interaction (RO-5963 0.041152 uM); 155.514 and 142.28 and 150.579 and 141.083 on MDM2/MDM4 interaction (RO-5963 0.37037 uM); 502.238 and 458.421 and 548.523 and 430.606 at MDM2/MDM4 interaction (RO-5963 1.11111 uM); 934.354 and 877.9 and 842.009 and 825.259 at MDM2/MDM4 interaction (RO-5963 3.33333 uM); 374.451 and 365.777 and 368.394 and 378.937 at MDM2/MDM4 interaction (RO-5963 10 uM).
